Among the data in PubChem BioAssay (NCI) are GI50 and TGI values, retold here.

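Growth conditions: 96-well plates. Treatment: test compound, 48 hours, 5 concentrations. Analysis: linear interpolation between bracketing concentrations; unreached endpoints set to highest concentration. GI50: concentration for 50% inhibition of growth. The concentration for full growth arrest is given as TGI.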

Among the test systems are SW-620 colon; HOP-92 NSCLC; A549 NSCLC; SK-OV-3 ovarian; HCT-15 colon; SK-MEL-28 melanoma; TK-10 renal; ACHN renal.
Test in all cases: NCI-60 cell line screen, 48 h

For `C[C@@H]1CCC2[C@@H](C)[C@H](OC(=O)CCC(=O)NCCNC(=O)Cc3cc(=O)oc4cc(N(C)C)ccc34)O[C@@H]3O[C@]4(C)CC[C@@H]1C23OO4` (some centres not stated), the GI50 is 0.457 µM in the test with SW-620 colon; 2.6 µM with HOP-92 NSCLC; 4.52 µM in the test with A549 NSCLC; 29 µM with SK-OV-3 ovarian; 0.318 µM in the test with HCT-15 colon; 17.4 µM in the test with SK-MEL-28 melanoma. In addition, the GI50 was 3.24 µM with TK-10 renal and 2.96 µM with ACHN renal. In addition, the TGI with SW-620 colon was 20.8 µM; with HOP-92 NSCLC it was 16.9 µM; in the test with A549 NSCLC, 23.1 µM; in the test on SK-OV-3 ovarian, above 100 µM; in the test on HCT-15 colon, 21 µM; in the test with SK-MEL-28 melanoma it was above 100 µM. Further, the TGI was found to be 18.6 µM in the test with TK-10 renal and 17.1 µM with ACHN renal.

With `NCCCn1c2c(c3ccc([N+](=O)[O-])cc3c1=O)C(=O)c1cc(Cl)ccc1-2`, the GI50 with SW-620 colon was below 0.01 µM; in the test with HOP-92 NSCLC, 0.0542 µM; in the test on A549 NSCLC, below 0.01 µM; in the test on SK-OV-3 ovarian, below 0.01 µM; with HCT-15 colon, 0.0285 µM; in the test with SK-MEL-28 melanoma, 0.126 µM. Also, the GI50 was 0.379 µM with TK-10 renal and below 0.01 µM in the test on ACHN renal. In addition, the TGI amounted to 0.213 µM in the test with SW-620 colon; 0.544 µM in the test with HOP-92 NSCLC; 0.116 µM in the test on A549 NSCLC; 0.197 µM with SK-OV-3 ovarian; 0.208 µM with HCT-15 colon; 1.67 µM in the test on SK-MEL-28 melanoma. The TGI worked out at 0.811 µM in the test with TK-10 renal and 0.124 µM in the test on ACHN renal.

For `COc1cccc2cc(N(C)c3nc(C)nc4ccsc34)ccc12`, the GI50 in the test with SW-620 colon is below 0.01 µM; in the test on HOP-92 NSCLC, below 0.01 µM; with A549 NSCLC it was below 0.01 µM; in the test on SK-OV-3 ovarian, below 0.01 µM; in the test on HCT-15 colon, below 0.01 µM; in the test on SK-MEL-28 melanoma, 1.53 µM. The figures for the GI50 with TK-10 renal and in the test with ACHN renal were 1.87 µM and below 0.01 µM, respectively. For the same molecule, the TGI in the test on SW-620 colon is 16.6 µM; in the test on HOP-92 NSCLC, 2.19 µM; in the test with A549 NSCLC, 16 µM; in the test with SK-OV-3 ovarian, 35.8 µM; in the test on HCT-15 colon, 13.5 µM; in the test with SK-MEL-28 melanoma it was 20 µM. Moreover, the TGI in the test on TK-10 renal stood at 24.1 µM; in the test on ACHN renal, 13.3 µM.

For the molecule `Cc1[nH]ccc2cc3nc4ccccc4c3cc12`, the GI50 in the test on SW-620 colon is 1.07 µM; with HOP-92 NSCLC it was 1.3 µM; in the test on A549 NSCLC, 2.5 µM; in the test on SK-OV-3 ovarian, 5.42 µM; with HCT-15 colon it was 1.84 µM; with SK-MEL-28 melanoma, 10.7 µM. The GI50 was 4.47 µM in the test with TK-10 renal and 0.963 µM in the test on ACHN renal. The TGI is 6.9 µM with SW-620 colon; 5.64 µM in the test with HOP-92 NSCLC; 12.2 µM in the test with A549 NSCLC; 18.1 µM in the test with SK-OV-3 ovarian; 5.9 µM in the test on HCT-15 colon; 23.9 µM with SK-MEL-28 melanoma. Besides, the figures for the TGI in the test on TK-10 renal and with ACHN renal were 12.9 µM and 10.6 µM, respectively.

As to `Cc1ccc2oc(=O)cc(C3c4ccc([nH]4)C(c4cc(=O)oc5ccc(C)cc45)c4ccc([nH]4)C(c4cc(=O)oc5ccc(C)cc45)c4ccc([nH]4)C(c4cc(=O)oc5ccc(C)cc45)c4ccc3[nH]4)c2c1` (configuration not stated), the GI50 with SW-620 colon is 0.0352 µM; in the test on HOP-92 NSCLC, 0.106 µM; in the test on A549 NSCLC, 0.063 µM; in the test on SK-OV-3 ovarian it was 0.0247 µM; in the test on HCT-15 colon it was 0.0317 µM; in the test on SK-MEL-28 melanoma it was 0.075 µM. The results for the GI50 in the test with TK-10 renal and with ACHN renal were 0.0519 µM and 0.0621 µM, respectively. Further, the TGI came to 3.34 µM in the test with SW-620 colon; 1.07 µM with HOP-92 NSCLC; 1.54 µM with A549 NSCLC; 0.0687 µM in the test on SK-OV-3 ovarian; 1.21 µM in the test with HCT-15 colon; 2.98 µM in the test on SK-MEL-28 melanoma. Further, the TGI in the test with TK-10 renal was 0.926 µM; with ACHN renal, 2.67 µM.

As for `COc1ccc(NCc2c(O)ccc3ccccc23)cc1`, the TGI in the test with SW-620 colon was 49.6 µM; with HOP-92 NSCLC, 29.6 µM; in the test on A549 NSCLC it was above 100 µM; in the test on SK-OV-3 ovarian, above 100 µM; in the test on HCT-15 colon, above 100 µM; in the test with SK-MEL-28 melanoma, 78.3 µM. Besides, the results for the TGI in the test with TK-10 renal and in the test on ACHN renal were 38.6 µM and 31.2 µM, respectively.

For the molecule `COc1cc(/C=N/O)nc(-c2ccccn2)c1`, the GI50 in the test with SW-620 colon was 0.415 µM; with HOP-92 NSCLC it was 0.551 µM; with HCT-15 colon, 0.197 µM; with SK-MEL-28 melanoma, 0.476 µM; in the test with TK-10 renal it was 0.325 µM; with ACHN renal, 0.241 µM. Besides, the TGI in the test with SW-620 colon, in the test with HOP-92 NSCLC, in the test with A549 NSCLC, in the test on SK-OV-3 ovarian, with HCT-15 colon and with SK-MEL-28 melanoma was above 100 µM in each case. Further, the TGI in the test on TK-10 renal is above 100 µM; in the test with ACHN renal it was 12.6 µM.

Regarding `CSc1ccc(C(=O)/C=C/c2ccc(F)cc2)cc1`, the GI50 is 24.8 µM with SW-620 colon; 75.9 µM with HOP-92 NSCLC; 64.4 µM in the test on A549 NSCLC; above 100 µM in the test on SK-OV-3 ovarian; 29.4 µM in the test with HCT-15 colon; 69.3 µM in the test on SK-MEL-28 melanoma. In addition, the GI50 was 85.3 µM in the test on TK-10 renal and above 100 µM with ACHN renal. The TGI was 70.8 µM in the test with SW-620 colon; above 100 µM in the test on HOP-92 NSCLC; above 100 µM in the test on A549 NSCLC; above 100 µM in the test on SK-OV-3 ovarian; above 100 µM with HCT-15 colon; above 100 µM in the test on SK-MEL-28 melanoma. For the same molecule, the TGI with TK-10 renal and in the test on ACHN renal was above 100 µM in each case.

With `CCC(C)c1cnc(CC(C)C)c(=O)[nH]1` (configuration not stated), the TGI in the test on SW-620 colon, in the test with HOP-92 NSCLC, in the test on A549 NSCLC, with SK-OV-3 ovarian, with HCT-15 colon and in the test with SK-MEL-28 melanoma was above 100 µM in each case. The TGI in the test with TK-10 renal and with ACHN renal was above 100 µM throughout.

As for `C=CC1=C(C)C(Cc2[nH]c(/C=c3\[nH]/c(=C/C4=NC(=O)C(C)/C4=C\C)c(C)c3CCC(=O)O)c(CCC(=O)OC)c2C)NC1=O` (configuration not stated), the GI50 in the test with SW-620 colon was 25.4 µM; with HOP-92 NSCLC, 19.6 µM; with A549 NSCLC, 40.2 µM; in the test with SK-OV-3 ovarian, 27.9 µM; in the test on HCT-15 colon, 21.6 µM; in the test with SK-MEL-28 melanoma, 14.8 µM. For the same molecule, the GI50 in the test with TK-10 renal is 46.4 µM; in the test on ACHN renal, 26.3 µM. The TGI is 61.4 µM in the test on SW-620 colon; 51.6 µM with HOP-92 NSCLC; above 100 µM in the test with A549 NSCLC; 78.2 µM in the test on SK-OV-3 ovarian; 53.9 µM in the test with HCT-15 colon; 31.9 µM in the test with SK-MEL-28 melanoma. In addition, the TGI in the test on TK-10 renal is above 100 µM; in the test with ACHN renal, 77.2 µM.
